Test results from US20250207173A1, “REPORTER CELL FOR ASSESSING DDX3 HELICASE ACTIVITY” (Nanyang Technological University, priority 2023, published 2025).
Entries after “also recorded” stand apart in the source; their conditions may differ.

How the values were obtained:
[1] = tested on: DDX3; experiment: ICD-Helicase luciferase reporter assay (Rac1-FLuc / DvL2-FLuc reporter plasmids) in 293T cells; assay type: cell-based, human; settings: for luciferase (luminescent) signals of Rac1-FLuc or DvL2-FLuc reporter cells: 293T cells transfected with Rac1-FLuc or DvL2-FLuc reporter plasmids, RK-33 0.5 to 2 μM vs vehicle (DMSO), cycloheximide as inhibitory control
Description: A total of 1.2×10^5 sgCTL or sgDDX3X reporter cells (Rac1-FLuc or DvL2-FLuc) were seeded into wells of a 24-well plate to allow cells to adhere for 24 h. Cells were pre-treated with increasing concentrations of a non-specific DDX3 inhibitor, RK-33 (0.5 μM, 1 μM, or 2 μM) for 3 h before transiently expressing the reporter plasmids into sgCTL and sgDDX3X cells for 16 h. Half of the cells were lysed in 1× cell culture lysis buffer (Promega #E1500) and bioluminescence was measured on a white bottom 96-well plate using luciferase assay system (Promega #E4030) by performing 2 sec measurement delay followed by a 10 sec measurement read. The remaining half of the cells were processed on flow-cytometry to determine the percentage of AcGFP^+ cells, to account for variation in transfection efficiency. […] Cycloheximide was used as a positive control for translational inhibition. Data represent three independent experiments and values in the bars are mean±SEM. *, p<0.05; ****, p<0.0001; ns, non-significant.
Cell transfection: 293T cells were seeded in 12 well plate (1.5×10^5 cells per well) a day prior to transfection. Cells were transfected with 1 μg of plasmids using Lipofectamine 2000 (ThermoFisher Scientific #11668019) as per manufacturer's recommendations.
Luciferase assay: Cells were lysed in luciferase cell culture lysis buffer (Promega #E1500) before measuring bioluminescence in a clear bottom 96-well plate using luciferase assay system (Promega #E4030) as per manufacturer's instructions. Relative luciferase activity was determined by subtracting luminescence values to blank and normalizing to untreated samples. Cycloheximide (Sigma #01810) was used as a positive control for translation inhibition at 1 μg/mL and RK-33 (Selleck #S8246) was used as a positive control for chemical inhibition of DDX3 at 3 μM.
The helicase function of the DDX3X and DDX3Y proteins regulates mRNA translation by unwinding of the complex 5′ untranslated region (5′-UTR) secondary structure. Two unique 5′-UTR structures were designed, Rac1 5′-UTR and DvL2 5′-UTR (i.e. short DVL2), known to be regulated by DDX3X and DDX3Y. The 5′-UTR segments were placed upstream of the luciferase gene (from the firefly Photinus pyralis) driven by a constitutively active human cytomegalovirus promoter (FIG. 1A-E). Luciferase emits bioluminescence signals proportional to its levels of expression, which served as a readout for helicase unwinding activity in ICD-Helicase assays. The reporter plasmids (Rac1-Fluc or DvL2-Fluc) were then transiently transfected into 293T cells. A transfection efficiency of more than 80% was obtained in all the experiments (FIG. 2). The selection of this cell line was for three main reasons. […] Second, 293T cells can tolerate knock-out (KO) or nearly complete knock-down of DDX3X expression. […]

[2] = tested on: 293T cells; experiment: MTS-based viability assay of reporter cells; assay type: cell-based; settings: 293T reporter cells (sgCTL and sgDDX3X); RK-33 0.5, 1 or 2 μM; normalized against vehicle (DMSO)
Description: (§1) Staurosporine (STS) was used as a positive kill control. […] Cells were treated with STS as a kill control. Bar chart represents mean±SEM of 3 independent experiments.

[3] = tested on: 293T cells; experiment: Annexin V-FITC apoptosis/cell death assay; assay type: cell-based, human; settings: RK-33 treatment
Description: as §1

| Compound | luciferase (luminescent) signals of Rac1-FLuc or DvL2-FLuc reporter cells [1] | luciferase activity ([1]; sgCTL 293T cells with normal endogenous DDX3, RK-33 0.5, 1 or 2 μM, 3 h pre-treatment) | luciferase activity (response to inhibitor) ([1]; sgDDX3X (DDX3X knock-out) 293T cells expressing Rac1-FLuc or DvL2-FLuc construct, RK-33 0.5, 1 or 2 μM) | cell viability [2] | induction of apoptosis/cell death [3] |
| --- | --- | --- | --- | --- | --- |
| RK-33 | significantly inhibited; also recorded: dose-dependently inhibited | dose-dependent reduction in luciferase activity | did not respond | no major change in cell viability | no major change in cell viability or induction of apoptosis/cell death |
| C[C@@H]1C[C@@H]([C@H](O)CC2CC(=O)NC(=O)C2)C(=O)[C@@H](C)C1 [cycloheximide] | significantly inhibited | – | – | – | – |
